Source: article PMC11280027, “Conquering the beyond Rule of Five Space with an Optimized High-Throughput Caco-2 Assay to Close Gaps in Absorption Prediction” (Pharmaceutics, 2024)

Test system: not given
Test: not given
Conditions: human fraction absorbed; rounded to two significant figures; ref [17]; cited from earlier work

Row | SMILES | Observed Human fa
1 | N=C(N)NC(=O)c1nc(Cl)c(N)nc1N [Amiloride] | 0.53
2 | CC(C)CN(C[C@@H](O)[C@H](Cc1ccccc1)NC(=O)O[C@H]1CCOC1)S(=O)(=O)c1ccc(N)cc1 [Amprenavir] | 0.76
3 | Cc1cc(=O)n(-c2ccccc2)n1C [Antipyrine] | 0.98
4 | CC[C@H]1OC(=O)[C@H](C)[C@@H](O[C@H]2C[C@@](C)(OC)[C@@H](O)[C@H](C)O2)[C@H](C)[C@@H](O[C@@H]2O[C@H](C)C[C@H](N(C)C)[C@H]2O)[C@](C)(O)C[C@@H](C)CN(C)[C@H](C)[C@@H](O)[C@]1(C)O [Azithromycin] | 0.43
5 | CC(C)(C)NC(=O)N[C@H](C(=O)N1C[C@H]2[C@@H]([C@H]1C(=O)NC(CC1CCC1)C(=O)C(N)=O)C2(C)C)C(C)(C)C (stereo partly shown) [Boceprevir] | 0.92
6 | COc1ccccc1Oc1c(NS(=O)(=O)c2ccc(C(C)(C)C)cc2)nc(-c2ncccn2)nc1OCCO [Bosentan] | 0.70
7 | O=C(O)COCCN1CCN(C(c2ccccc2)c2ccc(Cl)cc2)CC1 (stereo not shown) [Cetirizine] | 0.73
8 | C[C@]12C[C@H](O)[C@H]3[C@@H](CCC4=CC(=O)CC[C@@]43C)[C@@H]1CC[C@@H]2C(=O)CO [Corticosterone] | 1.0
9 | O=C(O)Cc1ccccc1Nc1c(Cl)cccc1Cl [Diclofenac] | 0.97
10 | OCCN(CCO)c1nc(N2CCCCC2)c2nc(N(CCO)CCO)nc(N3CCCCC3)c2n1 [Dipyridamole] | 0.56
11 | CN(C)CCC=C1c2ccccc2COc2ccccc21 [Doxepin] | 0.76
12 | NS(=O)(=O)c1cc(C(=O)O)c(NCc2ccco2)cc1Cl [Furosemide] | 0.61
13 | COc1ccc2c(c1)C(=O)N(CCc1ccc(S(=O)(=O)NC(=O)NC3CCCCC3)cc1)C(=O)C2(C)C [Gliquidone] | 0.95
14 | CCN(CCO)CCCC(C)Nc1ccnc2cc(Cl)ccc12 (stereo not shown) [Hydroxychloroquine] | 0.90
15 | CC(C)(C)NC(=O)[C@@H]1CN(Cc2cccnc2)CCN1C[C@@H](O)C[C@@H](Cc1ccccc1)C(=O)N[C@H]1c2ccccc2C[C@H]1O [Indinavir] | 0.63
16 | CC(=O)N1CCN(c2ccc(OCC3COC(Cn4ccnc4)(c4ccc(Cl)cc4Cl)O3)cc2)CC1 (stereo not shown) [Ketoconazole] | 0.76
17 | Nc1nnc(-c2cccc(Cl)c2Cl)c(N)n1 [Lamotrigine] | 0.98
18 | Nc1cccc2c1CN(C1CCC(=O)NC1=O)C2=O (stereo not shown) [Lenalidomide] | 0.90
19 | CCOC(=O)N1CCC(=C2c3ccc(Cl)cc3CCc3cccnc32)CC1 [Loratadine] | 0.90
20 | CN(Cc1cnc2nc(N)nc(N)c2n1)c1ccc(C(=O)N[C@@H](CCC(=O)O)C(=O)O)cc1 [Methotrexate] | 0.64
21 | CCN(CC)CCNC(=O)c1cc(Cl)c(N)cc1OC [Metoclopramide] | 0.89
22 | Cc1cccc(C)c1OCC(C)N (stereo not shown) [Mexiletine] | 0.99
23 | O=C(NCCN1CCOCC1)c1ccc(Cl)cc1 [Moclobemide] | 0.85
24 | CNS(=O)(=O)CCc1ccc2[nH]cc(C3CCN(C)CC3)c2c1 [Naratriptan] | 0.70

Row | SMILES | Observed Human fa
25 | CN1CCC[C@H]1c1cccnc1 [Nicotine] | 1.0
26 | COCCOC(=O)C1=C(C)NC(C)=C(C(=O)OC(C)C)C1c1cccc([N+](=O)[O-])c1 (stereo not shown) [Nimodipine] | 1.0
27 | CNCCC=C1c2ccccc2CCc2ccccc21 [Nortriptyline] | 1.0
28 | Cc1nccn1CC1CCc2c(c3ccccc3n2C)C1=O (stereo not shown) [Ondansetron] | 1.0
29 | CCOC(=O)C1=C[C@@H](OC(CC)CC)[C@H](NC(C)=O)[C@@H](N)C1 [Oseltamivir] | 0.75
30 | Nc1ccc(/N=N/c2ccccc2)c(N)n1 [Phenazopyridine] | 0.90
31 | O=C1NC(=O)C(c2ccccc2)(c2ccccc2)N1 [Phenytoin] | 0.93
32 | CNC(=O)Oc1ccc2c(c1)[C@]1(C)CCN(C)[C@@H]1N2C [Physostigmine] | 0.050
33 | CNC(=C[N+](=O)[O-])NCCSCc1ccc(CN(C)C)o1 [Ranitidine] | 0.56
34 | CO[C@H]1/C=C/O[C@@]2(C)Oc3c(C)c(O)c4c(c3C2=O)C2=NC3(CCN(CC(C)C)CC3)NC2=C(NC(=O)/C(C)=C\C=C\[C@H](C)[C@H](O)[C@@H](C)[C@@H](O)[C@@H](C)[C@H](OC(C)=O)[C@@H]1C)C4=O [Rifabutin] | 0.53
35 | CN(C)CCc1c[nH]c2ccc(Cn3cncn3)cc12 [Rizatriptan] | 0.90
36 | CN(CCOc1ccc(CC2SC(=O)NC2=O)cc1)c1ccccn1 (stereo not shown) [Rosiglitazone] | 1.0
37 | CC(C)c1nc(N(C)S(C)(=O)=O)nc(-c2ccc(F)cc2)c1/C=C/[C@@H](O)C[C@@H](O)CC(=O)O [Rosuvastatin] | 0.35
38 | CC[C@H]1OC(=O)[C@H](C)[C@@H](O[C@H]2C[C@@](C)(OC)[C@@H](O)[C@H](C)O2)[C@H](C)[C@@H](O[C@@H]2O[C@H](C)C[C@H](N(C)C)[C@H]2O)[C@](C)(O)C[C@@H](C)/C(=N\OCOCCOC)[C@H](C)[C@@H](O)[C@]1(C)O [Roxithromycin] | 0.86
39 | C#CCN(C)[C@H](C)Cc1ccccc1 [Selegiline] | 1.0
40 | O=C(O)c1cc(/N=N/c2ccc(S(=O)(=O)Nc3ccccn3)cc2)ccc1O [Sulfasalazine] | 0.33
41 | CNS(=O)(=O)Cc1ccc2[nH]cc(CCN(C)C)c2c1 [Sumatriptan] | 0.58
42 | CCCc1nc2c(C)cc(-c3nc4ccccc4n3C)cc2n1Cc1ccc(-c2ccccc2C(=O)O)cc1 [Telmisartan] | 0.82
43 | O=c1n(CCCN2CCN(c3cccc(Cl)c3)CC2)nc2ccccn12 [Trazodone] | 0.98
44 | OC(CCN1CCCCC1)(c1ccccc1)C1CCCCC1 (stereo not shown) [Trihexyphenidyl] | 1.0
45 | COc1ccc(C(CN(C)C)C2(O)CCCCC2)cc1 (stereo not shown) [Venlafaxine] | 0.96
46 | O=C1Cc2cc(CCN3CCN(c4nsc5ccccc45)CC3)c(Cl)cc2N1 [Ziprasidone] | 0.63
47 | CN(C)CCc1c[nH]c2ccc(C[C@H]3COC(=O)N3)cc12 [Zolmitriptan] | 0.92

Test system: not listed separately
Test: Bidirectional transport study with assay-ready Caco-2 cells, 7-day versus 21-day cultivation (Figure S2)
Conditions: human, Caco-2, pH 7.4

Row | SMILES | efflux ratio at 60 min
48 | CN/C(=N/CCSCc1nc[nH]c1C)NC#N [Cimetidine] | > 2
49 | COc1cc2nc(N3CCN(C(=O)c4ccco4)CC3)nc(N)c2cc1OC [Prazosin] | > 2
50 | O=C(O)c1cc(/N=N/c2ccc(S(=O)(=O)Nc3ccccn3)cc2)ccc1O [Sulfasalazine] | > 2

Test system: Caco-2 cells
Test: as above
Conditions: Caco-2 cells maintained 7 days on transwell plates; ER = Papp,BA/Papp,AB

Row | SMILES | efflux ratio (ER)
51 | C[C@]12CC[C@@H]3c4ccc(OS(=O)(=O)O)cc4CC[C@H]3[C@@H]1CCC2=O [Compound E3S, estrone-3-sulfate] | > 2

Same assay, conditions: Caco-2 cells maintained 21 days on transwell plates; ER = Papp,BA/Papp,AB

Row | SMILES | efflux ratio (ER)
52 | CN/C(=N/CCSCc1nc[nH]c1C)NC#N [Cimetidine] | > 2
53 | C[C@]12CC[C@@H]3c4ccc(OS(=O)(=O)O)cc4CC[C@H]3[C@@H]1CCC2=O [Compound E3S, estrone-3-sulfate] | > 2
54 | COc1cc2nc(N3CCN(C(=O)c4ccco4)CC3)nc(N)c2cc1OC [Prazosin] | > 2
55 | O=C(O)c1cc(/N=N/c2ccc(S(=O)(=O)Nc3ccccn3)cc2)ccc1O [Sulfasalazine] | > 2
